Assay results as given in publication PMC6905855, “Agonist-specific voltage-dependent gating of lysosomal two-pore Na^+ channels” (eLife, 2019).
Where “and” joins values, the source holds several entries; their conditions need not be identical. Identical values can stand only once.

Target: T1, surface-expressing mutant TPC2 channel (TPC2^LL/AA) in HEK293 cells (Homo sapiens, UniProt Q8NHX9, L11A/L12A)
T1 construct: expressed in transfected cells; host or cells: HEK293
Test: Whole-cell recordings of ITPC2-LL/AA
Type: cell-based
Conditions: for voltage-dependent inactivation of ITPC2, I1s / 0s: @-140mV, whole-cell; for time course of LyNa-VA1.2-induced ITPC2: wc; for current density: whole cell recordings
Method in brief: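 HEK293 cells transiently expressing EGFP-tagged human TPC2 L11A/L12A, a plasma-membrane-targeted mutant, recorded 24–36 h post-transfection. Whole-cell patch clamp with fast perfusion of bath solutions; currents digitized at 10 kHz and filtered at 2 kHz.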

T1 sequence (Q8NHX9 whole entry L11A/L12A): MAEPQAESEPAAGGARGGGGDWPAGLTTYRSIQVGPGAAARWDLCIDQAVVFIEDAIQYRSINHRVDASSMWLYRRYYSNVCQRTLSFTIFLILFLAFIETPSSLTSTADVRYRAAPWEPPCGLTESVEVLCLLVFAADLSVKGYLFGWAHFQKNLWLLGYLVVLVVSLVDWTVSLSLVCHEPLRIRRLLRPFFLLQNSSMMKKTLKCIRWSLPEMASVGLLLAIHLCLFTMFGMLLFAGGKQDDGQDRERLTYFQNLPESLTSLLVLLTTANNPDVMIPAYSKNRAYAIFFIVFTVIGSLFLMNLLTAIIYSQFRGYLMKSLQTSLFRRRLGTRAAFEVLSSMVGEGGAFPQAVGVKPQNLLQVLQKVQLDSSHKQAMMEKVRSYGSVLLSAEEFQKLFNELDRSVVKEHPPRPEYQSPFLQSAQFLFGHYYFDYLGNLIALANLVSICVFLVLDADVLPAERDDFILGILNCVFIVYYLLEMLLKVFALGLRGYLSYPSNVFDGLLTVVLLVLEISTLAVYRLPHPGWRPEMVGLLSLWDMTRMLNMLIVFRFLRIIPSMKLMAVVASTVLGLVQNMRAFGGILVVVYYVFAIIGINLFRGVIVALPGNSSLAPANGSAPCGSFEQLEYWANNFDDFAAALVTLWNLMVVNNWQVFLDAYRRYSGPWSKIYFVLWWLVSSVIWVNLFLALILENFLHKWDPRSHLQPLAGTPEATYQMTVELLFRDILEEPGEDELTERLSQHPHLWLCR

Structure (SMILES): CNCCCN1c2ccccc2CCc2ccccc21 [LyNa-VA1.2, Desipramine]
- voltage-dependent inactivation of ITPC2, I1s / 0s (individual recordings): 0.09192 and 0.1098 and 0.1458
- voltage-dependent inactivation of ITPC2, I1s / 0s (mean): 0.1158
- activation of whole-cell ITPC2-LL/AA (in words) (bath application, symmetric Na^+, 100 µM where stated): ITPC2 was evoked
- time course of LyNa-VA1.2-induced ITPC2 (time 0 s): -0.02373
- time course of LyNa-VA1.2-induced ITPC2 (time 2 s): -0.02853
- time course of LyNa-VA1.2-induced ITPC2 (time 4 s): -0.024
- time course of LyNa-VA1.2-induced ITPC2 (time 6 s): -0.02111
- time course of LyNa-VA1.2-induced ITPC2 (time 8 s): -0.02193
- time course of LyNa-VA1.2-induced ITPC2 (time 10 s): -0.01987
- time course of LyNa-VA1.2-induced ITPC2 (time 12 s): -0.0181
- time course of LyNa-VA1.2-induced ITPC2 (time 14 s): -0.01154
- time course of LyNa-VA1.2-induced ITPC2 (time 16 s): -7.79E-04
- time course of LyNa-VA1.2-induced ITPC2 (time 18 s): -0.01449
- time course of LyNa-VA1.2-induced ITPC2 (time 20 s): -0.01685
- time course of LyNa-VA1.2-induced ITPC2 (time 22 s): -0.0503
- time course of LyNa-VA1.2-induced ITPC2 (time 24 s): -0.06829
- time course of LyNa-VA1.2-induced ITPC2 (time 26 s): -0.1356
- time course of LyNa-VA1.2-induced ITPC2 (time 28 s): -0.1797
- time course of LyNa-VA1.2-induced ITPC2 (time 30 s): -0.2005
- time course of LyNa-VA1.2-induced ITPC2 (time 32 s): -0.2805
- time course of LyNa-VA1.2-induced ITPC2 (time 34 s): -0.3854
- time course of LyNa-VA1.2-induced ITPC2 (time 36 s): -0.4381
- time course of LyNa-VA1.2-induced ITPC2 (time 38 s): -0.4224
- time course of LyNa-VA1.2-induced ITPC2 (time 40 s): -0.5193
- time course of LyNa-VA1.2-induced ITPC2 (time 42 s): -0.5569
- time course of LyNa-VA1.2-induced ITPC2 (time 44 s): -0.6324
- time course of LyNa-VA1.2-induced ITPC2 (time 46 s): -0.7257
- time course of LyNa-VA1.2-induced ITPC2 (time 48 s): -0.7464
- time course of LyNa-VA1.2-induced ITPC2 (time 50 s): -0.8325
- time course of LyNa-VA1.2-induced ITPC2 (time 52 s): -0.8418
- time course of LyNa-VA1.2-induced ITPC2 (time 54 s): -0.8932
- time course of LyNa-VA1.2-induced ITPC2 (time 56 s): -0.9277
- time course of LyNa-VA1.2-induced ITPC2 (time 58 s): -0.9561
- time course of LyNa-VA1.2-induced ITPC2 (time 60 s): -0.9666
- time course of LyNa-VA1.2-induced ITPC2 (time 62 s): -0.9966
- time course of LyNa-VA1.2-induced ITPC2 (time 64 s): -0.9748
- time course of LyNa-VA1.2-induced ITPC2 (time 66 s): -1.0004
- current density (5 µM, individual recordings): 10.3471 pA/pF and 4.752 pA/pF and 3.368 pA/pF and 5.887 pA/pF
- current density (10 µM, individual recordings): 14.5785 pA/pF and 6.451 pA/pF and 2.849 pA/pF and 8.548 pA/pF
- current density (20 µM, individual recordings): 24.0331 pA/pF and 8.699 pA/pF and 7.085 pA/pF and 17.3826 pA/pF
- current density (50 µM, individual recordings): 89.8595 pA/pF and 25.0088 pA/pF and 25.4245 pA/pF and 76.3478 pA/pF
- current density (100 µM, individual recordings): 240.859 pA/pF and 94.6372 pA/pF and 96.3302 pA/pF and 256.8 pA/pF
- current density (200 µM, individual recordings): 297.455 pA/pF and 239.381 pA/pF and 181.434 pA/pF and 429.652 pA/pF
- current density (400 µM, individual recordings): 245.487 pA/pF and 193.066 pA/pF and 464.052 pA/pF
